# Test results published in patent US9815863B2, “Hydrogen bond forming fluoro ketolides for treating diseases” (priority 2010, dated 2017).
# What was measured:
# [1] = molecular target: ribosomes; details: literature values for erythromycin binding; read-out: Kd, previously published; cited from earlier work
# [2] = test system: S. aureus ribosomes (23S rRNA); experiment: RNA footprinting (ribosome chemical probing), wild-type S. aureus ribosomes; type: binding; details: S. aureus ribosomes, 100 μM antibiotic
# Method: (§1) Ribosome chemical probing. rRNA probing was done following standard protocols (Merryman, C., and H. F. Noller. 1998. Footprinting and modification-interference analysis of binding sites on RNA, p. 237-253. In C. W. J. Smith (ed.), RNA:Protein Interactions, A Practical Approach. Oxford University Press, Oxford), with minor modifications. Briefly, 200 nM ribosomes were incubated with 100 μM antibiotic in 50 μL of buffer B (80 mM HEPES-KOH [pH 7.8], 20 mM MgCl2, 100 mM NH4Cl, 1.5 mM dithiothreitol) for 10 min at 37° C., followed by 10 min at 20° C. Modifying reagents (dimethyl sulfate [DMS], kethoxal, or 1-cyclohexyl-3-(2-morpholinoethyl)carbodiimide metho p-toluene sulfonate [CMCT]) were added and the modification reaction was carried out for 10 min at 37° C. After quenching the reaction and ethanol precipitation, rRNA was extracted and the distribution of modified nucleotides was assessed by primer extension.
# (§2) Interactions of CEM-101 with wild-type E. coli and S. aureus ribosomes in solution. […] 1987. Chloramphenicol, erythromycin, carbomycin and vernamycin B protect overlapping sites in the peptidyl transferase region of 23S ribosomal RNA. Biochimie 69:879-884). Also included in this study was a C3-cladinose cousin of CEM-101, CEM-103, which lacks the C2-linked fluorine atom.
# [3] = test system: E. coli 70S ribosomes; experiment: Saturation (direct) binding of radiolabeled drug to E. coli ribosomes, spin-column
# Method: (§3) Ribosomes were prepared from E. coli, strain MRE 600, S. aureus strain ATCC 29212, or S. aureus strain N315 by standard protocols (Spedding™, G. 1990. Isolation and analysis of ribosomes from prokaryotes, eukaryotes, and organelles, p. 1-29. In G. Spedding (ed.), Ribosomes and protein synthesis, a practical approach. Oxford University Press, Oxford, United Kingdom; Adams, P. D., P. V. Afonine, G. Bunkoczi, V. B. Chen, I. W. Davis, N. Echols, J. J. Headd, L. W. Hung, G. J. Kapral, R. W. Grosse-Kunstleve, A. J. McCoy, N. W. Moriarty, R. Oeffner, R. J. Read, D. C. Richardson, J. S. Richardson, T. C. Terwilliger, and P. H. Zwart. 2010. PHENIX: a comprehensive Python-based system for macromolecular structure solution. Acta Crystallogr. D. Biol. Crystallogr. 66:213-221).
# (§4) Competition binding studies. […]
# (§5) Direct antibiotic binding experiments were done by incubating ribosomes at a 100 nM concentration with varying concentrations of radiolabeled drug in a total volume of 160 μL in buffer A (20 mM Tris-HCl [pH 7.5], 10 mM MgCl2, 150 mM NH4Cl, 6 mM 2-mercaptoethanol) at 37° C. for 15 min, then at 20° C. for 10 min. […] Radioactivity was measured in a scintillation counter and used to calculate the amount of the radiolabeled drug bound to ribosomes.
# [4] = test system: ribosomes isolated from the S. aureus N315 strain; experiment: Binding of [14C]erythromycin to ribosomes from S. aureus N315; details: ribosomes from S. aureus N315, dimethylated at A2058
# Method: Competition binding studies. Binding of erythromycin to E. coli and S. aureus ribosomes and competition experiments were done by size-exclusion chromatography using Bio-Gel P30 spin columns as described in Xiong, L., Y. Korkhin, and A. S. Mankin. 2005. Binding site of the bridged macrolides in the Escherichia coli ribosome. Antimicrob. Agents Chemother. 49:281-288.
# Direct antibiotic binding experiments were done by incubating ribosomes at a 100 nM concentration with varying concentrations of radiolabeled drug in a total volume of 160 μL in buffer A (20 mM Tris-HCl [pH 7.5], 10 mM MgCl2, 150 mM NH4Cl, 6 mM 2-mercaptoethanol) at 37° C. for 15 min, then at 20° C. for 10 min. The reactions were loaded onto the spin columns and centrifuged in a swinging-bucket microcentrifuge rotor for 1 min at 1,000 g at room temperature. The flow-through solution was collected; 130 μL was mixed with 5 mL of the scintillation cocktail. Radioactivity was measured in a scintillation counter and used to calculate the amount of the radiolabeled drug bound to ribosomes.
# Interaction of CEM-101 with S. aureus ribosomes dimethylated at A2058 by Erm-methyltransferase. Erm-methyltransferase modifies A2058 in 23S rRNA by consecutively adding two methyl groups to the exocyclic amino group of the adenine base. […]
# [5] = molecular target: S. aureus 70S ribosomes; experiment: Saturation (direct) binding of radiolabeled drug to S. aureus wild-type ribosomes, spin-column
# Method: as §3, §4, §5
# [6] = test system: E. coli ribosomes (23S rRNA); experiment: RNA footprinting (ribosome chemical probing), wild-type E. coli ribosomes; type: binding; details: E. coli ribosomes, 100 μM antibiotic
# Method: as §1, §2
# [7] = test system: 2058-dimethylated ribosomes isolated from the S. aureus N315 strain; experiment: RNA footprinting of A2058-dimethylated (Erm-modified) ribosomes from S. aureus N315; type: binding; details: S. aureus N315 ribosomes dimethylated at A2058, drugs at 100 μM
# Method: as §1
# Interaction of CEM-101 with S. aureus ribosomes dimethylated at A2058 by Erm-methyltransferase. Erm-methyltransferase modifies A2058 in 23S rRNA by consecutively adding two methyl groups to the exocyclic amino group of the adenine base. Such modification completely blocks binding of erythromycin and similar macrolides, whereas its effect on binding of ketolides is less clear (Douthwaite, S., L. H. Hansen, and P. Mauvais. 2000. Macrolide-ketolide inhibition of MLS-resistant ribosomes is improved by alternative drug interaction with domain R of 23S rRNA. Mol. Microbiol. 36:183-193; Liu, M., and S. Douthwaite. 2002. Activity of the ketolide telithromycin is refractory to Erm monomethylation of bacterial rRNA. Antimicrob. Agents Chemother. 46:1629-1633). Therefore, interaction of CEM-101 with the ribosomes isolated from a clinical S. aureus strain N315, which carries five chromosomal copies of constitutively expressed ermA gene present in the Tn554 transposon (Kuroda, M., T. Ohta, I. Uchiyama, T. Baba, H. Yuzawa, I. Kobayashi, L. Cui, A. Oguchi, K. Aoki, Y. Nagai, J. Lian, T. Ito, M. Kanamori, H. Matsumaru, A. Maruyama, H. Murakami, A. Hosoyama, Y. Mizutani-Ui, N. K. Takahashi, T. Sawano, R. Inoue, C. Kaito, K. Sekimizu, H. Hirakawa, S. Kuhara, S. Goto, J. Yabuzaki, M. Kanehisa, A. Yamashita, K. Oshima, K. Furuya, C. Yoshino, T. Shiba, M. Hattori, N. Ogasawara, H. Hayashi, and K. Hiramatsu. 2001. Whole genome sequencing of meticillin-resistant Staphylococcus aureacs. Lancet 357:1225-1240) was investigated.
# Footprinting analysis was used to test interactions of ketolides (CEM-101 and telithromycin) and cladinose-containing macrolides (CEM-103 and erythromycin) with the 2058-dimethylated ribosomes isolated from the S. aureus N315 strain. Ribosomes were incubated with the drugs (present at 100 μM concentration) and probed by DMS modification. Because dimethylated A2058 blocks progression of reverse transcriptase along the RNA template, a strong reverse transcriptase stop is observed at A2058 on the primer extension gel (Vester, B., and S. Douthwaite. 1994. Domain V of 23S rRNA contains all the structural elements necessary for recognition by the ErmE methyltransferase. J. Bacteriol. 176:6999-7004; Zhong, P., Z. Cao, R. Hammond, Y. Chen, J. Beyer, V. D. Shortridge, L. Y. Phan, S. Pratt, J. Capobianco, K. A. Reich, R. K. Flamm, Y. S. Or, and L. Katz. 1999. Induction of ribosome methylation in MLS-resistant Streptococcus pneumoniae by macrolides and ketolides. Microb. Drug Resist. 5:183-188). Therefore, it is impossible to use footprinting to evaluate interactions of macrolides with this position in the S. aureus N315 ribosomes. […]
structure (smiles),measurement,setting,value
CC[C@H]1OC(=O)[C@H](C)[C@@H](O[C@H]2C[C@@](C)(OC)[C@@H](O)[C@H](C)O2)[C@H](C)[C@@H](O[C@@H]2O[C@H](C)C[C@H](N(C)C)[C@H]2O)[C@](C)(O)C[C@@H](C)C(=O)[C@H](C)[C@@H](O)[C@]1(C)O [erythromycin],Kd,[1],10 to 100 nM
same,Protection of A752 from DMS modification,[2],fails to protect
same,Kd,[3],66 ± 11 nM
same,Binding to ribosomes,[4],lack of binding
same,Kd,[5],11 ± 1 nM
same,Protection of A752 from DMS modification,[6],fails to protect
same,Protection of A2059 from DMS modification (binding to Erm-modified ribosome),[7],not
same,Protection of G2505 from kethoxal modification,[7],did not protect
same,Protection of U2609 from modification with CMCT,[7],did not protect
